Test results as given in ChEMBL document CHEMBL5236621, “Synthesis and biological evaluation of N-(benzene sulfonyl)acetamide derivatives as anti-inflammatory and analgesic agents with COX-2/5-LOX/TRPV1 multifunctional inhibitory activity” (Bioorg Med Chem Lett, 2023).
pIC50: −log10 of the molar value.

Columns and labels:
[1] = biological target: T1, Polyunsaturated fatty acid 5-lipoxygenase (Homo sapiens, UniProt P09917); assay: Inhibition of 5-LOX (unknown origin)
T1 sequence (P09917 whole entry): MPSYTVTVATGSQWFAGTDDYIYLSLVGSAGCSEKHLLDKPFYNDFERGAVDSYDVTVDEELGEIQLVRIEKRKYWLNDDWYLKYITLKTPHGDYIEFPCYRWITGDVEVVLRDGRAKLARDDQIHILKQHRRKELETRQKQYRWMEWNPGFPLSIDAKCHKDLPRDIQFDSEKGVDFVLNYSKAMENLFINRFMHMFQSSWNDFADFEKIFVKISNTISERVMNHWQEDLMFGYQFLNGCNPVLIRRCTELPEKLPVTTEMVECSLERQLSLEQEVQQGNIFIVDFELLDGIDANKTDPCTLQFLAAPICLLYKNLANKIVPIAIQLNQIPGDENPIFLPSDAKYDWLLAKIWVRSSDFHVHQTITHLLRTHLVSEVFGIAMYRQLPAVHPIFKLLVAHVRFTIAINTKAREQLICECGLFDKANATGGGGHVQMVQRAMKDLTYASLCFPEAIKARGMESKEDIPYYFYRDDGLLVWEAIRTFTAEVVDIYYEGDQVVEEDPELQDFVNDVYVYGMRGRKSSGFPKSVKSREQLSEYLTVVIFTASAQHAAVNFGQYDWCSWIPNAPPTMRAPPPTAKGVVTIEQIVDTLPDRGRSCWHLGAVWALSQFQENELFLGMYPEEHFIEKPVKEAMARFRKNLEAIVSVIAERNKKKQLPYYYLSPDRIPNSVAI

[2] = biological target: Transient receptor potential cation channel subfamily V member 1 (Homo sapiens, UniProt Q8NER1); assay: Inhibition of TRPV1 (unknown origin)
[3] = biological target: Prostaglandin G/H synthase 2
[4] = Cmax in Sprague-Dawley rat at 10 mg/kg, IG; format: ADME, organism-based; parameters: dose 10 mg/kg, route ig; conditions: in vivo, po
[5] = Tmax in Sprague-Dawley rat at 10 mg/kg, IG; format: ADME, organism-based; conditions: in vivo, po
[6] = Apparent clearance in Sprague-Dawley rat at 1 mg/kg, iv; format: ADME, organism-based; conditions: in vivo
[7] = Bioavailability in Sprague-Dawley rat at 1 mg/kg, iv; format: ADME, organism-based; conditions: in vivo
Mus musculus [8] = species on record: Mus musculus; assay: Analgesic activity in formalin-induced mouse pain model assessed as reduction in immediate response by measuring licking time; format: functional
Mus musculus [9] = species on record: Mus musculus; assay: Analgesic activity in formalin-induced mouse pain model assessed as time consumed for nociceptive behavior by measuring licking time; format: functional
Mus musculus [10] = assay: Antiinflammatory activity against capsaicin-induced mouse ear edema model assessed as decrease in ear thickness at 20 mg/kg relative to control; format: functional

Transient receptor potential cation channel subfamily V member 1, sequence (Q8NER1 whole entry): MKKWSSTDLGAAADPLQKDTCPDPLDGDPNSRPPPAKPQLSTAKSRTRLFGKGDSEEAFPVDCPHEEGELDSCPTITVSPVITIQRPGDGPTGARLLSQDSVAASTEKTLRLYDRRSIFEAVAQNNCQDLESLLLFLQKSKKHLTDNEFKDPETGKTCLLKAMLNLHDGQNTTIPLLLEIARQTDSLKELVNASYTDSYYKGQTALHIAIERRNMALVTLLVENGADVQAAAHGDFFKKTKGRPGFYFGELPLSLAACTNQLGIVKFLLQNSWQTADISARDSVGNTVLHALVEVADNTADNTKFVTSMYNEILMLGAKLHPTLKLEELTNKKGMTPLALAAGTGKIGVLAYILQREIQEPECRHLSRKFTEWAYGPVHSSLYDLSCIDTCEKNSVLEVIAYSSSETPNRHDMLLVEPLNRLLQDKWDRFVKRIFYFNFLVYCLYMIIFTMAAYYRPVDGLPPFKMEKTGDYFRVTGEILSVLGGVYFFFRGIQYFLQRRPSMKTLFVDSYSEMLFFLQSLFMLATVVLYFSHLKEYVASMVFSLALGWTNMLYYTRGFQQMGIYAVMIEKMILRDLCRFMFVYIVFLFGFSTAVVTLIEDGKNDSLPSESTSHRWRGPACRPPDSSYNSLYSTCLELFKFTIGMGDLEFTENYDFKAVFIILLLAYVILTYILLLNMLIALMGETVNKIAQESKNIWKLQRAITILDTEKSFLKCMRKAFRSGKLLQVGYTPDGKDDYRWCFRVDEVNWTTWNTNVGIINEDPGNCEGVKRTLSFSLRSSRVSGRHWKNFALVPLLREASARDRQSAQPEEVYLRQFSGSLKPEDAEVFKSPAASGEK

Structure (SMILES) | pIC50 [1] | pIC50 [2] | pIC50 [3] | Cmax [4] | Tmax [5] | clearance [6] | bioavailability [7] | Time (Mus musculus [8]) | Time (Mus musculus [9]) | inhibition in vivo at 20 mg/kg (Mus musculus [10])
Cc1ccc(-c2cc(C(F)(F)F)nn2-c2ccc(S(=O)(=O)NC(=O)CCCCC3CCSS3)cc2)cc1 (stereo unspecified) | 5.85 | < 5.00 | 6.43 | – | – | – | – | – | – | –
COc1cc(C(=O)[N-]S(=O)(=O)c2ccc(-n3nc(C(F)(F)F)cc3-c3ccc(C)cc3)cc2)ccc1[O-].[Na+].[Na+] | 6.34 | – | 7.96 | 5810 ng/mL | 4.5 h | 3.24 mL/min/kg | 96.8% | 0 min | 85.5 s | –
Cc1ccc(-c2cc(C(F)(F)F)nn2-c2ccc(S(=O)(=O)NC(=O)C(C)c3ccc(CC(C)C)cc3)cc2)cc1 (stereo unspecified) | 6.28 | 5.99 | 7.60 | – | – | – | – | – | – | –
Cc1ccc(-c2cc(C(F)(F)F)nn2-c2ccc(S(N)(=O)=O)cc2)cc1 [CELECOXIB] | < 5.00 | < 5.00 | – | – | – | – | – | – | – | 48.8%
Cc1ccc(-c2cc(C(F)(F)F)nn2-c2ccc(S(=O)(=O)NC(=O)c3ccccc3)cc2)cc1 | 6.92 | – | 7.12 | – | – | – | – | – | – | –
COc1cc(/C=C/C(=O)[N-]S(=O)(=O)c2ccc(-n3nc(C(F)(F)F)cc3-c3ccc(C)cc3)cc2)ccc1[O-].[Na+].[Na+] | 6.51 | 6.85 | 7.64 | – | – | 8.64 mL/min/kg | 13.3% | – | – | –
CCOC(=O)NS(=O)(=O)c1ccc(-n2nc(C(F)(F)F)cc2-c2ccc(C)cc2)cc1 | 6.04 | – | 7.46 | – | – | – | – | – | – | –
